The values that follow come from patent US10975037B2 (priority 2018, dated 2021).

Counter-ions that a name gives are not always drawn. Like-named read-outs stand apart in the source and are kept apart here. Marks after values point to notes of the source that are not given here.

By Kd is commonly meant the free concentration of one partner at which half of the binding sites on the other are occupied at equilibrium, for simple one-to-one binding. The inhibition is the relative decrease from the control value, in per cent. As a reminder, the IC50 is the concentration that gives 50% inhibition.

Experiment [1] concerns the target human RORγt ligand binding domain (RORγt LBD) (Homo sapiens (Human), UniProt P51449). Nature of the experiment: RORγt ThermoFluor® assay (thermal shift binding). The procedure, abridged: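 Thermal shift with 0.065 mg/mL RORγt LBD and 60 μM 1,8-ANS in 100 mM Hepes pH 7.0, 10 mM NaCl, 2.5 mM GSH, 0.002% Tween-20.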
Background: In DSF a fluorescence change marks the thermal transition of the protein.

The next experiment has as its target full-length human RORγt (Homo sapiens (Human), UniProt P51449). Kind of experiment: RORγt (full-length human) reporter assay, conditions A or B, HEK293T cells. Format: cell-based. To be noted: for inhibition at 2 µM: 2 μM compound concentration. In outline: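 After 16–20 h, dual firefly/Renilla luciferase luminescence was read. Firefly signal was normalized to DMSO and saturating reference compound, then to Renilla, and fitted for IC50; % inhibition is versus DMSO.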

[2] abbreviates: RORγt (FL) Reporter Assay A or B, IC50, HEK293T cells.
The mark [3] stands for this setting: read-out: ThermoFluor® Assay, Kd.
[4] abbreviates: HEK-293T, read-out: RORγt (FL) Reporter Assay A or B, % inhibition.

full-length human RORγt, sequence (P51449 other isoform, or with tags, fused parts or gaps): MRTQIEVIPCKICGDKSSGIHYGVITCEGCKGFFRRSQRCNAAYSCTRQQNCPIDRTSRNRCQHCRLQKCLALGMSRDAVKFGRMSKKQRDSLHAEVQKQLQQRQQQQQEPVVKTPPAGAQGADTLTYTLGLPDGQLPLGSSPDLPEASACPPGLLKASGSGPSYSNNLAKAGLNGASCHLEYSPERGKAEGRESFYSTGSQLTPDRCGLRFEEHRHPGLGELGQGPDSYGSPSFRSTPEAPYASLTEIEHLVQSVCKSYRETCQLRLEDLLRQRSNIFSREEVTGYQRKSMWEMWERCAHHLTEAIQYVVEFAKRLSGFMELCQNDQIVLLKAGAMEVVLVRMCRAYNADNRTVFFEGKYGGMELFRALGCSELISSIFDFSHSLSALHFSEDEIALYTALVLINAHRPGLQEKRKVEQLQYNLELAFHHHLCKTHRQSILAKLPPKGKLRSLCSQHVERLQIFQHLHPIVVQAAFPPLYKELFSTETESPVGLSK
human RORγt ligand binding domain (RORγt LBD), sequence (P51449 other isoform, or with tags, fused parts or gaps): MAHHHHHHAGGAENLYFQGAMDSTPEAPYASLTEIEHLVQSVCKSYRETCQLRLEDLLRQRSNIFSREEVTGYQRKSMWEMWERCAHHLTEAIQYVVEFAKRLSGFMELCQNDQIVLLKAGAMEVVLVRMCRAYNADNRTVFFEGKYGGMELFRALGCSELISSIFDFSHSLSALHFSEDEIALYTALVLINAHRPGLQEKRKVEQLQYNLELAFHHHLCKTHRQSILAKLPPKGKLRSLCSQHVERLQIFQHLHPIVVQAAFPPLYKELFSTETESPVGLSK

With `CCn1nc(C(=O)NC[C@H]2CC[C@H](S(C)(=O)=O)C[NH+]2CC(=O)ON)c(Cl)c1-c1ccc(CC(C)(C)C(F)(F)F)cc1OC(F)F` (stereo in doubt) [Example 64, N-(((2R*,5S*)-1-(2-(Aminooxy)-2-oxoethyl)-5-(methylsulfonyl)piperidin-2-yl)methyl)-4-chloro-5-(2-(difluoromethoxy)-4-(3,3,3-trifluoro-2,2-dimethylpropyl)phenyl)-1-ethyl-1H-pyrazole-3-carboxamide Trifluoroacetic Acid Salt], the Kd in experiment [1] (ThermoFluor® Assay, Kd) was determined as 3.2 nM. On full-length human RORγt (HEK-293T, 3 μM compound concentration (footnote *), read-out: RORγt (FL) Reporter Assay A or B, % inhibition), the inhibition at 3 µM worked out at 119%. The same compound displayed an IC50 on full-length human RORγt (setting [2]) of 51 nM.
Turning to `C[C@H](Cc1ccc(-c2c(Cl)c(C(=O)NC[C@]3(O)CC[C@@H](S(C)(=O)=O)CC3)nn2C)c(OC(F)F)c1)C(F)(F)F` (single isomer, unassigned) [Example 152, 4-Chloro-5-(2-(difluoromethoxy)-4-((R*)-3,3,3-trifluoro-2-methylpropyl)phenyl)-N-(((1s,4S)-1-hydroxy-4-(methylsulfonyl)cyclohexyl)methyl)-1-methyl-1H-pyrazole-3-carboxamide], the Kd in experiment [1] (ThermoFluor® Assay, Kd) was found to be 7.9 nM. For the same compound, at full-length human RORγt (HEK-293T, 0.33 μM compound concentration (footnote *****), read-out: RORγt (FL) Reporter Assay A or B, % inhibition), the inhibition at […] turned out to be 72%. Moreover, the IC50 against full-length human RORγt (setting [2]) turned out to be 37 nM.
As to `CCn1nc(C(=O)NC[C@]2(O)CC[C@@H](S(C)(=O)=O)CC2)c(Cl)c1-c1ccc(C2(O)CCC(C(F)(F)F)CC2)cc1OC(F)F` (single isomer, unassigned) [Example 112, 4-Chloro-5-(2-(difluoromethoxy)-4-((1s*,4s*)-1-hydroxy-4-(trifluoromethyl)cyclohexyl)phenyl)-1-ethyl-N-(((1s,4s)-1-hydroxy-4-(methylsulfonyl)cyclohexyl)methyl)-1H-pyrazole-3-carboxamide], the Kd in experiment [1] (ThermoFluor® Assay, Kd) turned out to be 3000 nM. The inhibition at 1 µM on full-length human RORγt (HEK-293T, 1 μM compound concentration (footnote ***), read-out: RORγt (FL) Reporter Assay A or B, % inhibition) was found to be 44%. In addition, the IC50 against full-length human RORγt (setting [2]) is above 1000 nM.
For the compound `CCn1nc(C(=O)NC[C@H]2CC[C@H](S(C)(=O)=O)CC2)c(Cl)c1-c1ccc(CCCC(F)(F)F)cc1OC` [Example 80, 4-Chloro-1-ethyl-5-(2-methoxy-4-(4,4,4-trifluorobutyl)phenyl)-N-(((1r,4r)-4-(methylsulfonyl)cyclohexyl)methyl)-1H-pyrazole-3-carboxamide], the Kd in experiment [1] (setting [3]) stood at 2.3 nM. At full-length human RORγt (setting [4]), the inhibition at 2 µM turned out to be 89%. On full-length human RORγt (setting [2]), the IC50 worked out at 6 nM.
`CCn1nc(C(=O)NC[C@]2(O)CC[C@@H](S(C)(=O)=O)CC2)c(Cl)c1-c1ccc(CC(C)(C)C(F)(F)F)cc1C#N` [Example 88, 4-Chloro-5-(2-cyano-4-(3,3,3-trifluoro-2,2-dimethylpropyl)phenyl)-1-ethyl-N-(((1s,4s)-1-hydroxy-4-(methylsulfonyl)cyclohexyl)methyl)-1H-pyrazole-3-carboxamide]: the Kd in experiment [1] (setting [3]) was 15 nM. In addition, the inhibition at 3 µM on full-length human RORγt (setting [4]) is 88%. This compound also yielded an IC50 on full-length human RORγt (setting [2]) of 130 nM.
As to `CCn1nc(C(=O)NC[C@H]2CC[C@H](S(C)(=O)=O)CC2)c(Cl)c1-c1ccc(N[C@H](C)C(F)(F)F)cc1C` [Example 184, 4-Chloro-1-ethyl-5-(2-methyl-4-(((R)-1,1,1-trifluoropropan-2-yl)amino)phenyl)-N-(((1r,4R)-4-(methylsulfonyl)cyclohexyl)methyl)-1H-pyrazole-3-carboxamide], the dissociation constant (Kd) in experiment [1] (setting [3]) is 13 nM. On full-length human RORγt (setting [4]), the inhibition at 2 µM was determined as 101%. Further, at full-length human RORγt (setting [2]), the IC50 is 52 nM.
For `CCn1nc(C(=O)NC[C@H]2CC[C@H](S(=O)(=O)NC=O)CC2)c(Cl)c1-c1ccc(CC(C)(C)C(F)(F)F)cc1OC(F)F` [Example 67, 4-Chloro-5-(2-(difluoromethoxy)-4-(3,3,3-trifluoro-2,2-dimethylpropyl)phenyl)-1-ethyl-N-(((1r,4r)-4-(N-formylsulfamoyl)cyclohexyl)methyl)-1H-pyrazole-3-carboxamide], the Kd in experiment [1] (setting [3]) is 0.039 nM. In addition, on full-length human RORγt (3 μM compound concentration (footnote *)), the “RORγt (FL) Reporter Assay A or B, % inhibition” value is recorded as 118* %. Moreover, at full-length human RORγt (HEK293T cells, read-out: RORγt (FL) Reporter Assay A or B, IC50), the IC50 was determined as 56 nM.
